Where a SMILES comes first, the peptide text is derived from it.
How the values were obtained:
Settings in all cases: pH 7
Pancreatic alpha-amylase [1] = molecular target: T1, Pancreatic alpha-amylase (Homo sapiens, UniProt P04746); assay: Inhibition Kinetics Assay
T1 sequence (P04746 whole entry): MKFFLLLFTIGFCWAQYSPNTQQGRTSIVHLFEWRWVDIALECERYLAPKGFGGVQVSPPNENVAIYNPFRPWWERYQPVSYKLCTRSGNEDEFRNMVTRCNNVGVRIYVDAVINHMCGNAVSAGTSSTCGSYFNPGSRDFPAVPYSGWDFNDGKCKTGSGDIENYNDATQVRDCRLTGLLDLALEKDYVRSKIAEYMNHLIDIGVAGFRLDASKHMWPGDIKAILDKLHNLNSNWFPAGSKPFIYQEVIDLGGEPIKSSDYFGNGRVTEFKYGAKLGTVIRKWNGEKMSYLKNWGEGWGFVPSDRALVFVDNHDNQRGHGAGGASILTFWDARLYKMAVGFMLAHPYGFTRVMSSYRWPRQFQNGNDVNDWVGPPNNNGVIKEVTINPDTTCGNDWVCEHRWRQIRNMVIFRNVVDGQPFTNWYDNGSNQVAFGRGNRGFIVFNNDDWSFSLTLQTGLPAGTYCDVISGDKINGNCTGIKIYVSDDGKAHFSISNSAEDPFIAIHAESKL
Method: The release of 2-chloro-4-nitrophenol resulting from the HPA-catalyzed hydrolysis of 2-chloro-4-nitrophenyl a-maltotrioside (CNPG3) was monitored at 400 nm. Reactions were run at 30 °C in 50 mM NaPi and 100 mM NaCl (pH 7.0). Reactions were monitored over 5 min to measure the initial reaction rate.

Alpha-amylase 1A = molecular target: T2, Alpha-amylase 1A (Homo sapiens, UniProt P0DUB6); assay: Inhibition Assay (piHA-Dm)
T2 sequence (P0DUB6 whole entry): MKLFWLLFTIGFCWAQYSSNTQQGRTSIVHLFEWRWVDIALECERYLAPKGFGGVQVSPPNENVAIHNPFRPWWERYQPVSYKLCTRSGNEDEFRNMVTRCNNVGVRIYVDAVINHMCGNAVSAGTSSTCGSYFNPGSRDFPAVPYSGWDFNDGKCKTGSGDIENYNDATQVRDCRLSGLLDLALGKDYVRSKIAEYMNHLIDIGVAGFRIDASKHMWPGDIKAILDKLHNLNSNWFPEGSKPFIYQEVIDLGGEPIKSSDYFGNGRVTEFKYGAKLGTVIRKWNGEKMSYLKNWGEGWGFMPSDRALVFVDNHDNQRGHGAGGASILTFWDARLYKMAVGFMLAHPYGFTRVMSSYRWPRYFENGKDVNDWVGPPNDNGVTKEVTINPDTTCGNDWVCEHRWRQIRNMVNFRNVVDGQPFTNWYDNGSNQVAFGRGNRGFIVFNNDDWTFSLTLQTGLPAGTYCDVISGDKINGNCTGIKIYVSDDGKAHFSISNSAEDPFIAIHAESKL
Method: (§1) After kinetic analysis with HPA, piHA-Dm was tested as an inhibitor of ten additional enzymes. The conditions are listed as follows: Agrobacterium faecalis β-glucosidase (2.5 × 10^-4 mg/mL enzyme, 50 mM sodium phosphate pH 7, 4 mM PNP β-gal); Bos taurus β-galactosidase (6.9 × 10^-2 mg/mL enzyme, 50 mM sodium phosphate pH 7, 1 mM PNP β-gal); S. cerevisiae α-glucosidase (5 × 10^-3 mg/mL enzyme, 50 mM sodium phosphate pH 7, 1 mM α-glc); Human maltase-glucoamylase (8.1 × 10^-2 mg/mL enzyme, 50 mM sodium phosphate pH 7, 1 mM α-glc); Mouse maltase-glucoamylase (8.1 × 10^-2 mg/mL enzyme, 50 mM sodium phosphate pH 7, 1 mM α-glc); Butyrivibrio fibrisolvens α-amylase (1.7 × 10^-4 mg/mL enzyme, 50 mM sodium phosphate 100 mM NaCl pH 7, 1 mM CNPG3); Aspergillus oryzae α-amylase (1.9 × 10^-4 mg/mL enzyme, 50 mM sodium phosphate 100 mM NaCl pH 7, 1 mM CNPG3); Porcine pancreatic α-amylase (6.7 × 10^-3 mg/mL enzyme, 50 mM sodium phosphate 100 mM N

[2] = molecular target: Soluble maltase-glucoamylase (Mus musculus, UniProt Q6XK23); assay: Inhibition Assay (piHA-Dm)
Method: as §1

Pancreatic alpha-amylase [3] = molecular target: T3, Pancreatic alpha-amylase (Sus scrofa, UniProt P00690); assay: Inhibition Assay (piHA-Dm)
T3 sequence (P00690 whole entry): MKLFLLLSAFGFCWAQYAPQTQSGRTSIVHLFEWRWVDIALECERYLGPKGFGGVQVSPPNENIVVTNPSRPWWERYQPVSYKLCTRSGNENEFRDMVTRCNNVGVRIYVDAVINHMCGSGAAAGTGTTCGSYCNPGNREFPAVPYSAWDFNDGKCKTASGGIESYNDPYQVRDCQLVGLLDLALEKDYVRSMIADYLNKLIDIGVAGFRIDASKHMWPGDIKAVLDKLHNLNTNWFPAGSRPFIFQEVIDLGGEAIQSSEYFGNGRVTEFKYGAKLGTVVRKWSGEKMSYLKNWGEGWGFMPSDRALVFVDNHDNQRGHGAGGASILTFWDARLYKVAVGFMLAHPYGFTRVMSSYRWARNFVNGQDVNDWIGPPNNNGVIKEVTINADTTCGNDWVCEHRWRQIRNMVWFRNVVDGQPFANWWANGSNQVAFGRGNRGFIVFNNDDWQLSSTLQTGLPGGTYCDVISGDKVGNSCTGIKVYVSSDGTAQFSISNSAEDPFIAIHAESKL
Method: as §1

Maltase-glucoamylase = Maltase-glucoamylase (Homo sapiens, UniProt O43451); assay: Inhibition Assay (piHA-Dm)
Method: as §1

Soluble maltase-glucoamylase, sequence (Q6XK23 whole entry): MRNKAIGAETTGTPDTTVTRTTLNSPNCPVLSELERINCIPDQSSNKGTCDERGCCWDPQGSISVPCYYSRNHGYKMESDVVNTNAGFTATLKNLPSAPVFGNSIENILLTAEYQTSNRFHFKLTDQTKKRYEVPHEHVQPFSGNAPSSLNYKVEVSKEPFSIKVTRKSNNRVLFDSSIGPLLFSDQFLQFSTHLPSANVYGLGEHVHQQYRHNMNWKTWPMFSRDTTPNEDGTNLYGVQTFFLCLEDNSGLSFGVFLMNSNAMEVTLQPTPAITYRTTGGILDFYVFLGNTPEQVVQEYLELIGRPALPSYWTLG
Maltase-glucoamylase, sequence (O43451 whole entry): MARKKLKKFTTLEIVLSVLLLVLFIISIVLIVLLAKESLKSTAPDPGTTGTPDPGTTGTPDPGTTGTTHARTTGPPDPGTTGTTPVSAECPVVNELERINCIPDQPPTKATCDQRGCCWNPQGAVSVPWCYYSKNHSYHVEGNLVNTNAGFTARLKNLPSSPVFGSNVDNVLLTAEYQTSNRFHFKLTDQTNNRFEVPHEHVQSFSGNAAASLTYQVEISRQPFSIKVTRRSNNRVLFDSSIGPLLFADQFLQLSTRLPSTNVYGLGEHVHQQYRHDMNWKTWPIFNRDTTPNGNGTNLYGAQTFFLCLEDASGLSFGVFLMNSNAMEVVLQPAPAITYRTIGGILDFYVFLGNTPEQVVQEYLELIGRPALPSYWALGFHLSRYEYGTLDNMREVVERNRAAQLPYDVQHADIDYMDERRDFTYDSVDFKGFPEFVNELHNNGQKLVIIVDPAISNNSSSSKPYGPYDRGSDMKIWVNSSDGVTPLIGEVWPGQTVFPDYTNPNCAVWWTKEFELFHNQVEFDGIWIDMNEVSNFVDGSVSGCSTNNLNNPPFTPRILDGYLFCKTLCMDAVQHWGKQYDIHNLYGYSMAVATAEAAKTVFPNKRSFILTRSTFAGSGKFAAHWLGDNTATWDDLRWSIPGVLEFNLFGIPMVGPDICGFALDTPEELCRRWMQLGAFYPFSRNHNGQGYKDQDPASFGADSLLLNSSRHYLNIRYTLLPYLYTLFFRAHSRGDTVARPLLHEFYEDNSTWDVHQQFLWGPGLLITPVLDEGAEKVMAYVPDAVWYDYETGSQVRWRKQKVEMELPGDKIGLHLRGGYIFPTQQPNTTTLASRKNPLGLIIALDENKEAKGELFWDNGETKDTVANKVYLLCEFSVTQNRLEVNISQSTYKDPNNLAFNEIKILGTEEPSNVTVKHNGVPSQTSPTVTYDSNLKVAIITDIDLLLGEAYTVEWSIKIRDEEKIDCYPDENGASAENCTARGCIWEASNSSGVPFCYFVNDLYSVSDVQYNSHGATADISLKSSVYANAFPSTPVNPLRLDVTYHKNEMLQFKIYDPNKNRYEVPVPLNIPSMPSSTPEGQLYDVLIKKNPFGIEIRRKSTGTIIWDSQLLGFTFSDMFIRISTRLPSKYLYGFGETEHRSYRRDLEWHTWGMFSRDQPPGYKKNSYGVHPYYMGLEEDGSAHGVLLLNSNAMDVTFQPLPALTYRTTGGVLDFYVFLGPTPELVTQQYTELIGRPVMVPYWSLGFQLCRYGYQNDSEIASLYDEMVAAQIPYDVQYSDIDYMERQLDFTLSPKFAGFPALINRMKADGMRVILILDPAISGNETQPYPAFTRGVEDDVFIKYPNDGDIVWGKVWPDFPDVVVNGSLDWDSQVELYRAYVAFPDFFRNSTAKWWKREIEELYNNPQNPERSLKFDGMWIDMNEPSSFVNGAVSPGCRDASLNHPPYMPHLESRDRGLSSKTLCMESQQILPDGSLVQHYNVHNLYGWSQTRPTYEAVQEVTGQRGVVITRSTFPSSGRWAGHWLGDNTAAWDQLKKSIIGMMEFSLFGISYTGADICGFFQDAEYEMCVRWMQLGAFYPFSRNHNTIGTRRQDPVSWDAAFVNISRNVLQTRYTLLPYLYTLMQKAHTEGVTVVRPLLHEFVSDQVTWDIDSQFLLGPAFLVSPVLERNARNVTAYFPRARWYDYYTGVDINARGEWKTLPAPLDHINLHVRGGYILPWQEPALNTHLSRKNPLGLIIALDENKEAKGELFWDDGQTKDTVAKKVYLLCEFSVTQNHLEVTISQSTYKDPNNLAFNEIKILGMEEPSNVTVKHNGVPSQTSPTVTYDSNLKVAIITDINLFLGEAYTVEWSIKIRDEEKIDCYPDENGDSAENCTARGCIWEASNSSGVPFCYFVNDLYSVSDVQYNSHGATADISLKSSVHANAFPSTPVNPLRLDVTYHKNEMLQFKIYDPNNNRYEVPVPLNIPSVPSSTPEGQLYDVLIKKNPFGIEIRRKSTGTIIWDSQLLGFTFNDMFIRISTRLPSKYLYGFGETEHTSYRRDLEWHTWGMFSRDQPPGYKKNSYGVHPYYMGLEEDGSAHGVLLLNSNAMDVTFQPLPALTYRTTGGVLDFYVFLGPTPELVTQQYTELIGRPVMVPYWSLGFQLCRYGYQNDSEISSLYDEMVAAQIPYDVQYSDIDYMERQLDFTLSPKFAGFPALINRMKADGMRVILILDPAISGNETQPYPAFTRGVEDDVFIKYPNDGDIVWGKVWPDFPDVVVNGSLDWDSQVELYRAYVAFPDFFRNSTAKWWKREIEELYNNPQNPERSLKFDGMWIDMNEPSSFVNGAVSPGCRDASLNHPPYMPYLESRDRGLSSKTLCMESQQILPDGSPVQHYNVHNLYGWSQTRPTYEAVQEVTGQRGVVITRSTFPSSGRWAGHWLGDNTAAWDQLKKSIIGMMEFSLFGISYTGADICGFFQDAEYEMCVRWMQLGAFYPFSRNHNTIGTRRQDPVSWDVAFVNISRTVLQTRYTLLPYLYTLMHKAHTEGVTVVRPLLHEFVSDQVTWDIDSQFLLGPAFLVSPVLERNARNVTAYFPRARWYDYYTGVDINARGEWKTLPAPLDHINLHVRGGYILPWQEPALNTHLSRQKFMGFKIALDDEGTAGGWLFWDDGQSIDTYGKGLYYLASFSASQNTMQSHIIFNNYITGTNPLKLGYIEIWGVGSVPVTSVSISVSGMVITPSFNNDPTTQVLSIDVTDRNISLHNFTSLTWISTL

Compound	Ki (Pancreatic alpha-amylase [1])	IC50 (Alpha-amylase 1A)	IC50 [2]	IC50 (Pancreatic alpha-amylase [3])	IC50 (Maltase-glucoamylase)
CC(C)[C@H](NC(=O)[C@H](Cc1c[nH]c2ccccc12)NC(=O)[C@H](CS)N1SCC(=O)N[C@@H](Cc2ccc(O)cc2)C(=O)N2CCC[C@H]2C(=O)N[C@@H](Cc2ccc(O)cc2)C(=O)N[C@@H](CO)C1=O)C(=O)N[C@@H](CCCNC(=N)N)C(=O)N[C@@H](Cc1cnc[nH]1)C(=O)N[C@@H](CO)C(=O)N[C@@H](CC(=O)O)C(=O)N1CCC[C@H]1C(=O)N[C@@H](Cc1cnc[nH]1)C(=O)N[C@@H](CCCCN)C(=O)N[C@@H](Cc1ccccc1)C(N)=O [piHA-D3]	2.7 nM	–	–	–	–
CC(C)[C@H](NC(=O)[C@H](Cc1c[nH]c2ccccc12)NC(=O)[C@H](CS)N1SCC(=O)N[C@@H](Cc2ccc(O)cc2)C(=O)N2CCC[C@H]2C(=O)N[C@@H](Cc2ccc(O)cc2)C(=O)N[C@@H](CO)C1=O)C(=O)N[C@@H](CCCNC(=N)N)C(=O)N[C@@H](Cc1cnc[nH]1)C(N)=O [piHA-Dm]	7 nM	34 nM	–	–	–
CC[C@H](C)[C@H](NC(=O)[C@H](CCCNC(=N)N)NC(=O)[C@@H](NC(=O)[C@H](Cc1cnc[nH]1)NC(=O)[C@H](CCCNC(=N)N)NC(=O)[C@H](C)NC(=O)[C@H](Cc1c[nH]c2ccccc12)NC(=O)[C@H](CS)N1SCC(=O)N[C@@H](Cc2ccc(O)cc2)C(=O)N2CCC[C@H]2C(=O)N[C@@H](Cc2ccc(O)cc2)C(=O)N[C@@H](CO)C1=O)C(C)C)C(=O)N[C@@H](CCCNC(=N)N)C(=O)N[C@H](CCC(=O)O)C(=O)N[C@@H](CC(N)=O)C(N)=O [piHA-D1]	1 nM	–	–	–	–
CC(C)[C@H](NC(=O)[C@H](Cc1c[nH]c2ccccc12)NC(=O)[C@@H]1CSCC(=O)N[C@@H](Cc2ccc(O)cc2)C(=O)N2CCC[C@H]2C(=O)N[C@@H](Cc2ccc(O)cc2)C(=O)N[C@@H](CO)C(=O)N1)C(=O)N[C@@H](CCCNC(=N)N)C(=O)N[C@@H](Cc1cnc[nH]1)C(N)=O [piHA-Dm] (HELM PEPTIDE1{[O=C(C[*:3])[*:2]].Y.P.Y.S.C.W.V.R.H.[am]}$PEPTIDE1,PEPTIDE1,1:R3-6:R3$$$V2.0)	–	–	990 nM	8.5 nM	520 nM
